Test results reported in the supplement of paper PMC10307832.

What was measured:
Experiment in all cases: relative viability (nuclei count vs DMSO), 5 days (fraction); higher = more cells survive
[1] = compound: O=C(c1cc(Cc2n[nH]c(=O)c3ccccc23)ccc1F)N1CCN(C(=O)C2CC2)CC1 [Olaparib]
In short: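 Lung cancer cell lines in 1536-well plates were exposed by pinning to five library-drug doses (not always all listed) √10 apart, following an overnight hold at 37 °C. MetaXpress counted Hoechst-stained nuclei from 4× images taken after 5 days without medium change. Viability is the median ratio of treated-well to vehicle-well nuclei across plates. Plates required control CV below 25% and at least one doubling.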

[2] = compound: C[C@@H](Oc1cc(-c2cnn(C3CCNCC3)c2)cnc1N)c1c(Cl)ccc(F)c1Cl [Crizotinib] + C[C@]1(O)C[C@@H](c2nc(-c3ccc4ccc(-c5ccccc5)nc4c3)c3c(N)nccn32)C1 [Linsitinib] (partner 1 µM)
In short: (§1)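 Each reported value is a median over duplicate plates. It expresses relative viability: treated-well nuclei count divided by vehicle-well nuclei count. Lung cancer cell lines in 1536-well plates were dosed by pin tool a day after seeding, alone with one drug or with a fixed anchor-drug dose plus five library-drug doses (not always all listed) in √10 steps, and nuclei were counted after 5 days.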

[3] = compound: C[C@@H](Oc1cc(-c2cnn(C3CCNCC3)c2)cnc1N)c1c(Cl)ccc(F)c1Cl [Crizotinib] + CC(C)C[C@H](NC(=O)[C@H](Cc1ccccc1)NC(=O)c1cnccn1)B(O)O [Bortezomib] (partner 0.002 µM)
In short: as §1

Cell Line	relative viability ([1]; 0.08 µM)	relative viability ([1]; 0.253 µM)	relative viability ([1]; 2.53 µM)	relative viability ([1]; 8 µM)	relative viability ([1]; 8 µM, anchor plate)	relative viability ([2]; first compound 0.01 µM)	relative viability ([2]; first compound 0.03162 µM)	relative viability ([2]; first compound 0.1 µM)	relative viability ([2]; first compound 1 µM)	relative viability ([3]; first compound 0.01 µM)	relative viability ([3]; first compound 0.03162 µM)	relative viability ([3]; first compound 0.1 µM)	relative viability ([3]; first compound 1 µM)	relative viability ([2]; first compound 0.3162 µM)	relative viability ([3]; first compound 0.3162 µM)
LC-2-ad	1.09	0.89	0.943	0.866	0.697	0.872	0.879	0.762	0.852	1.06	1.07	1	1.04	–	–
LCLC-97TM1	1.02	0.938	0.904	0.913	0.374	0.17	0.195	0.177	0.168	0.641	0.601	1.09	0.519	0.19	0.435
LCLC-103H	1.04	0.893	1	0.862	0.749	0.985	1.07	1	1.3	1.06	1.04	1.11	1.16	1.15	1.09
LK-2	1.19	0.896	1.09	1.01	0.803	0.431	0.523	0.541	0.709	–	–	–	–	0.458	–
LOU-NH91	1.16	0.943	1.01	0.962	0.914	0.902	0.916	0.963	0.939	0.457	0.465	0.451	0.458	0.991	0.484
LU99A	0.98	0.837	0.776	0.532	0.266	0.477	0.541	0.528	0.579	1.1	1.14	1.14	1.04	0.486	1.07
LXF-289	1.12	0.979	1.1	1.03	1.07	0.91	0.972	0.983	0.937	0.917	0.972	1.01	0.967	0.906	0.85
NCI-H23	1.23	0.84	0.804	0.517	0.344	0.557	0.642	0.619	0.774	1.02	1.09	1.03	0.979	–	–
NCI-H322M	1.06	0.888	0.98	0.815	0.745	0.811	0.954	1	0.903	1.19	1.23	1.24	1.38	0.96	1.29
NCI-H358	0.969	0.894	0.934	0.849	0.63	0.663	0.658	0.744	0.899	–	–	–	–	0.779	–
NCI-H441	1.13	1	0.942	0.76	0.525	0.564	0.498	0.575	0.551	0.689	0.419	0.764	0.355	0.382	–
NCI-H460	1.08	0.915	0.895	0.657	0.441	0.736	0.84	0.718	–	1.08	1.07	1.01	1.1	0.847	1.2
NCI-H520	1.02	0.856	0.85	0.609	0.347	0.831	0.97	0.985	1.05	0.492	0.5	0.586	0.331	1.04	0.522
NCI-H522	1.08	1.01	0.973	0.703	0.679	–	–	–	–	–	–	–	–	–	–
NCI-H596	0.987	0.86	0.919	0.792	0.711	0.971	1.16	1.07	1.15	0.894	1.18	1.1	0.947	1.19	1.45
NCI-H647	1.08	0.862	0.97	0.879	0.542	1.2	0.92	1.12	1.2	0.638	1.01	0.827	0.943	1.04	0.94
NCI-H650	1.13	0.872	0.801	0.744	0.378	0.858	0.868	–	0.894	0.769	0.655	0.806	0.671	0.596	0.613
NCI-H661	1.02	0.924	0.925	0.836	0.753	0.552	0.472	0.521	0.759	0.759	0.768	0.72	0.817	0.582	0.777
NCI-H727	1.04	0.753	0.783	0.736	0.741	0.305	0.282	0.261	0.409	0.569	0.806	1.01	0.988	0.271	0.962
NCI-H1395	1.01	0.806	0.663	0.538	0.479	1.07	1.17	0.944	1.03	–	–	–	–	1.01	–
NCI-H1623	1.07	0.987	0.917	0.791	–	–	–	–	–	–	–	–	–	–	–
NCI-H1648	0.956	0.908	–	1.2	0.818	–	–	–	–	–	–	–	–	–	–
NCI-H1650	1.21	0.848	0.785	0.871	0.812	–	–	–	–	0.188	0.173	0.205	0.2	–	0.159
NCI-H1944	0.921	0.806	0.656	0.646	0.419	1.11	1.07	1.2	1.21	–	–	–	–	1.18	–
NCI-H2170	0.973	0.875	0.971	0.915	0.599	–	–	–	–	–	–	–	–	–	–
NCI-H2342	0.974	0.951	0.936	0.941	0.452	–	–	–	–	–	–	–	–	–	–
SK-MES-1	1.09	0.892	0.96	0.776	0.731	1.02	1.1	1.15	–	–	–	–	–	0.982	–
SW 900	0.879	0.855	0.715	0.716	0.905	–	–	–	–	–	–	–	–	–	–
